Experimental findings from patent US20250002464A1, “NOVEL COMPOUND AND PHARMACEUTICAL COMPOSITION COMPRISING SAME” (SAPIENSBIO INC., priority 2021, published 2025) are described below.

This assay concerns α-SMA. Nature of the assay: α-SMA expression inhibitory ability in MRC5 cell line (Western blotting). Particulars: TGF-β1 (10 ng/mL), 72 hours, relative to TGF-β1 only. The format is cell-based. Here is the method: Subsequently, the inhibitory effect on pulmonary fibrosis of the compounds according to the present invention was overall evaluated. An MRC5 cell line was treated with each compound at 10 μM, and 2 hours later, treated with TGF-β1 (10 ng/mL). After 72 hours, the cells were lysed using RIPA Buffer, and then an α-SMA protein level was measured through Western blotting. The α-SMA expression level when treating the cells with each compound and TGF-β1 compared to the α-SMA expression level when treating the cells only with TGF-β1 without the compound was calculated as the α-SMA expression inhibitory ability of the corresponding compound. The α-SMA expression inhibitory ability of each compound is summarized in Table 2 below (A: inhibitory ability≥70%, B: 50%: inhibitory ability<70%, C: inhibitory ability<50%).

Consider `CC(C(=O)N1CCN(Cc2cccc(Cl)c2)c2ccccc21)N1CCCCC1` (centres unmarked) [Compound 100, 1-(4-(3-chlorobenzyl)-3,4-dihydroquinoxaline-1(2H)-yl)-2-(piperidin-1-yl)propan-1-one], for which the inhibition at 10 µM is no less than 70%.
For `CC(C(=O)N1CCN(Cc2cccc(Cl)c2)c2ccccc21)N1CCN(C)CC1` (centres unmarked) [Compound 101, 1-(4-(3-chlorobenzyl)-3,4-dihydroquinoxaline-1(2H)-yl)-2-(4-methylpiperazin-1-yl)propan-1-one] the value was 50 to 70%; for `O=C(CN1CCCC1)N1CCN(Cc2cccc(Cl)c2)c2ccccc21` [Compound 102, 1-(4-(3-chlorobenzyl)-3,4-dihydroquinoxaline-1(2H)-yl)-2-(pyrrolidin-1-yl)ethan-1-one], less than 50%; for `O=C(CN1CCCCC1)N1CCN(Cc2cccc(Cl)c2)c2ccccc21` [Compound 103, 1-(4-(3-chlorobenzyl)-3,4-dihydroquinoxaline-1(2H)-yl)-2-(piperidin-1-yl)ethan-1-one], 50 to 70%.
The molecule `CN1CCN(CC(=O)N2CCN(Cc3cccc(Cl)c3)c3ccccc32)CC1` [Compound 104, 1-(4-(3-chlorobenzyl)-3,4-dihydroquinoxaline-1(2H)-yl)-2-(4-methylpiperazin-1-yl)ethan-1-one] had an inhibition at 10 µM of no less than 70%.
With `CC(C(=O)N1CCN(Cc2ccc(Cl)cc2)c2ccccc21)N1CCN(C)CC1` (centres unmarked) [Compound 110, 1-(4-(4-chlorobenzyl)-3,4-dihydroquinoxaline-1(2H)-yl)-2-(4-methylpiperazin-1-yl)propan-1-one], the inhibition at 10 µM lay in the range of 50 to 70%.
Under `O=C(CCN1CCCC1)N1CCN(Cc2ccccn2)c2ccccc21` [Compound 114, 1-(4-(pyridin-2-ylmethyl)-3,4-dihydroquinoxaline-1(2H)-yl)-3-(pyrrolidin-1-yl)propan-1-one di-oxalate] stands 50 to 70%; under `O=C(CCN1CCCCC1)N1CCN(Cc2ccccn2)c2ccccc21` [Compound 115, 3-(piperidin-1-yl)-1-(4-(pyridin-2-ylmethyl)-3,4-dihydroquinoxaline-1(2H)-yl)propan-1-one], less than 50%; under `O=C(CN1CCCC1)N1CCN(Cc2ccccn2)c2ccccc21` [Compound 117, 1-(4-(pyridin-2-ylmethyl)-3,4-dihydroquinoxaline-1(2H)-yl)-2-(pyrrolidin-1-yl)ethan-1-one], less than 50%.
For `CN1CCN(CC(=O)N2CCN(Cc3ccccn3)c3ccccc32)CC1` [Compound 118, 2-(4-methylpiperazin-1-yl)-1-(4-(pyridin-2-ylmethyl)-3,4-dihydroquinoxaline-1(2H)-yl)ethan-1-one] the value was less than 50%; for `CN1CCN(CCC(=O)N2CCN(Cc3cccnc3)c3ccccc32)CC1` [Compound 121, 3-(4-methylpiperazin-1-yl)-1-(4-(pyridin-3-ylmethyl)-3,4-dihydroquinoxaline-1(2H)-yl)propan-1-one], less than 50%.
Turning to `O=C(CCN1CCCC1)N1CCN(Cc2ccncc2)c2ccccc21` [Compound 122, 1-(4-(pyridin-4-ylmethyl)-3,4-dihydroquinoxaline-1(2H)-yl)-3-(pyrrolidin-1-yl)propan-1-one], the inhibition at 10 µM lay in the range of 50 to 70%.
For `O=C(CCN1CCCCC1)N1CCN(Cc2ccncc2)c2ccccc21` [Compound 123, 3-(piperidin-1-yl)-1-(4-(pyridin-4-ylmethyl)-3,4-dihydroquinoxaline-1(2H)-yl)propan-1-one] the value was less than 50%; for `O=C(CCN1CCCC1)N1CCN(c2ccccc2Cl)c2ccccc21` [Compound 125, 1-(4-(2-chlorophenyl)-3,4-dihydroquinoxaline-1(2H)-yl)-3-(pyrrolidin-1-yl)propan-1-one], 50 to 70%.
Regarding `O=C(CCN1CCCCC1)N1CCN(c2ccccc2Cl)c2ccccc21` [Compound 126, 1-(4-(2-chlorophenyl)-3,4-dihydroquinoxaline-1(2H)-yl)-3-(piperidin-1-yl)propan-1-one], the inhibition at 10 µM lay within 50 to 70%.
Under `CN1CCN(CCC(=O)N2CCN(c3ccccc3Cl)c3ccccc32)CC1` [Compound 127, 1-(4-(2-chlorophenyl)-3,4-dihydroquinoxaline-1(2H)-yl)-3-(4-methylpiperazin-1-yl)propan-1-one] stands 50 to 70%; under `CC(C(=O)N1CCN(c2ccccc2Cl)c2ccccc21)N1CCCC1` (centres unmarked) [Compound 128, 1-(4-(2-chlorophenyl)-3,4-dihydroquinoxaline-1(2H)-yl)-2-(pyrrolidin-1-yl)propan-1-one], 50 to 70%.
For `CC(C(=O)N1CCN(c2ccccc2Cl)c2ccccc21)N1CCCCC1` (centres unmarked) [Compound 129, 1-(4-(2-chlorophenyl)-3,4-dihydroquinoxaline-1(2H)-yl)-2-(piperidin-1-yl)propan-1-one] the value was no less than 70%.
In the case of `CC(C(=O)N1CCN(c2ccccc2Cl)c2ccccc21)N1CCN(C)CC1` (centres unmarked) [Compound 130, 1-(4-(2-chlorophenyl)-3,4-dihydroquinoxaline-1(2H)-yl)-2-(4-methylpiperazin-1-yl)propan-1-one], the inhibition at 10 µM was 50 to 70%.
For `O=C(CN1CCCC1)N1CCN(c2ccccc2Cl)c2ccccc21` [Compound 131, 1-(4-(2-chlorophenyl)-3,4-dihydroquinoxaline-1(2H)-yl)-2-(pyrrolidin-1-yl)ethan-1-one] the value was 50 to 70%; for `O=C(CN1CCCCC1)N1CCN(c2ccccc2Cl)c2ccccc21` [Compound 132, 1-(4-(2-chlorophenyl)-3,4-dihydroquinoxaline-1(2H)-yl)-2-(piperidin-1-yl)ethan-1-one], 50 to 70%; for `CN1CCN(CC(=O)N2CCN(c3ccccc3Cl)c3ccccc32)CC1` [Compound 133, 1-(4-(2-chlorophenyl)-3,4-dihydroquinoxaline-1(2H)-yl)-2-(4-methylpiperazin-1-yl)ethan-1-one], 50 to 70%.
Under `O=C(CCN1CCCC1)N1CCN(c2cccc(Cl)c2)c2ccccc21` [Compound 134, 1-(4-(3-chlorophenyl)-3,4-dihydroquinoxaline-1(2H)-yl)-3-(pyrrolidin-1-yl)propan-1-one] stands no less than 70%.
`CN1CCN(CCC(=O)N2CCN(c3cccc(Cl)c3)c3ccccc32)CC1` [Compound 135, 1-(4-(3-chlorophenyl)-3,4-dihydroquinoxaline-1(2H)-yl)-3-(4-methylpiperazin-1-yl)propan-1-one] registered an inhibition at 10 µM of no less than 70%.
Under `CC(C(=O)N1CCN(c2cccc(Cl)c2)c2ccccc21)N1CCCC1` (centres unmarked) [Compound 136, 1-(4-(3-chlorophenyl)-3,4-dihydroquinoxaline-1(2H)-yl)-2-(pyrrolidin-1-yl)propan-1-one] stands no less than 70%; under `CC(C(=O)N1CCN(c2cccc(Cl)c2)c2ccccc21)N1CCN(C)CC1` (centres unmarked) [Compound 137, 1-(4-(3-chlorophenyl)-3,4-dihydroquinoxaline-1(2H)-yl)-2-(4-methylpiperazin-1-yl)propan-1-one], no less than 70%; under `O=C(CN1CCCC1)N1CCN(c2cccc(Cl)c2)c2ccccc21` [Compound 138, 1-(4-(3-chlorophenyl)-3,4-dihydroquinoxaline-1(2H)-yl)-2-(pyrrolidin-1-yl)ethan-1-one], no less than 70%.
Consider `CN1CCN(CC(=O)N2CCN(c3cccc(Cl)c3)c3ccccc32)CC1` [Compound 139, 1-(4-(3-chlorophenyl)-3,4-dihydroquinoxaline-1(2H)-yl)-2-(4-methylpiperazin-1-yl)ethan-1-one], for which the inhibition at 10 µM was no less than 70%.
For `O=C(CCN1CCCC1)N1CCN(c2ccc(Cl)cc2)c2ccccc21` [Compound 140, 1-(4-(4-chlorophenyl)-3,4-dihydroquinoxaline-1(2H)-yl)-3-(pyrrolidin-1-yl)propan-1-one] the value was less than 50%; for `O=C(CCN1CCCCC1)N1CCN(c2ccc(Cl)cc2)c2ccccc21` [Compound 141, 1-(4-(4-chlorophenyl)-3,4-dihydroquinoxaline-1(2H)-yl)-3-(piperidin-1-yl)propan-1-one], 50 to 70%.
Under `CC(C(=O)N1CCN(c2ccc(Cl)cc2)c2ccccc21)N1CCN(C)CC1` (centres unmarked) [Compound 145, 1-(4-(4-chlorophenyl)-3,4-dihydroquinoxaline-1(2H)-yl)-2-(4-methylpiperazin-1-yl)propan-1-one] stands no less than 70%; under `O=C(CCN1CCCC1)N1CCN(c2ccccn2)c2ccccc21` [Compound 146], less than 50%; under `CC(C(=O)N1CCN(c2ccccn2)c2ccccc21)N1CCCC1` (centres unmarked) [Compound 149], less than 50%.
For `CC(C(=O)N1CCN(c2ccccn2)c2ccccc21)N1CCCCC1` (centres unmarked) [Compound 150] the value was no less than 70%.
The molecule `O=C(CN1CCCC1)N1CCN(c2ccccn2)c2ccccc21` [Compound 152] displayed an inhibition at 10 µM of no less than 70%.
Under `O=C(CN1CCCCC1)N1CCN(c2ccccn2)c2ccccc21` [Compound 153, 2-(piperidin-1-yl)-1-(4-(pyridin-2-yl)-3,4-dihydroquinoxaline-1(2H)-yl)ethan-1-one] stands no less than 70%; under `CN1CCN(CC(=O)N2CCN(c3ccccn3)c3ccccc32)CC1` [Compound 154, 2-(4-methylpiperazin-1-yl)-1-(4-(pyridin-2-yl)-3,4-dihydroquinoxaline-1(2H)-yl)ethan-1-one di L-tartrate], no less than 70%; under `O=C(CCN1CCCC1)N1CCN(c2ccncc2)c2ccccc21` [Compound 158, 1-(4-(pyridin-4-yl)-3,4-dihydroquinoxaline-1(2H)-yl)-3-(pyrrolidin-1-yl)propan-1-one], less than 50%.
